The subject of data set [1] is differentiated SH-SY5Y cells. As to the kind of experiment: Anti-oxidative stress-induced neuronal cell death (AOND) analysis, AlamarBlue cell viability. In kind it is cell-based, human. How it is done: Human neuroblastoma SH-SY5Y cells (ATCC, CRL-2266) were grown in Dulbecco’s modified Eagle’s medium (DMEM) supplemented with 10% fetal bovine serum (HyClone, Thermo Fisher Scientific Inc.), 100 U/ml penicillin, and 100 µg/ml streptomycin at 37°C in 5% CO2. For differentiation, SH-SY5Y cells were seeded at a density of 0.75×10^4 cells per well in 96-well plates (Primaria, BD Falcon) for 1 day, and cultured in the medium containing 10 µM all-trans retinoic acid for additional 5 days.
[…] Then, the cells were exposed to various concentrations of cytotoxins, including oxidative stressors [menadione, 10 to 80 µM for 4 to 6 h; α-naphthoquinone, 12.5 µM for 4 h; 6-hydroxydopamine (6-OHDA), 400 µM for 4 h], protein kinase inhibitor (staurosporine, 25 µM for 6 h) and phosphatase inhibitor (okadaic acid, 1 µM for 6 h), in fresh medium. Cell viability was measured by AlamarBlue assay (Invitrogen) as described previously.

For data set [2], the system named is Nrf2 signaling pathway in SH-SY5Y cells. As to the kind of experiment: Nrf2-regulated gene expression (RT-PCR, Western blot). It is filed as cell-based, human. The following applies: 10 µM, within 3 h. As for the experimental part: Total RNA was extracted from cells using the TRIzol reagent (Invitrogen). Isolated total RNA was purified using the SV Total RNA Isolation System (Promega) according to the manufacturer’s instruction. RT-PCR was performed with QIAGEN onestep RT-PCR kit (QIAGEN). The housekeeping peptidylprolyl isomerase A (PPIA) gene was used as an internal control. PCR primers specific to each gene are as follows: ATF3, 5′-[…]-3′, and 5′-[…]-3′ (268 bp); GCLM, 5′-[…]-3′, and 5′-[…]-3′ (367 bp); HO-1, 5′-[…]-3′, and 5′-[…]-3′ (348 bp); NQO1, 5′-[…]-3′, and 5′-[…]-3′ (298 bp); Nrf2, 5′-[…]-3′, and 5′-[…]-3′ (263 bp); p21/CDKN1A, 5′-[…]-3′, and 5′-[…]-3′ (201 bp); p62/SQSTM1, 5′-[…]-3′, and 5′-[…]-3′ (330 bp); PPIA, 5′-[…]-3′, and 5′-[…]-3′ (184 bp). Amplified products were electrophoretically resolved by a 2.0% agarose gel, stained with ethidium bromide, and photographed under ultraviolet light.
SH-SY5Y cells (3×10^5 cells) were washed twice with ice-cold PBS and incubated in 1 ml of ice-cold 10% trichloroacetic acid for 30 min. Cells were centrifuged at 22,000×g for 15 min at 4°C and lysed by pipetting in 80 µl of 9 M urea containing 2% Triton X-100 and 1% dithiothreitol. After the addition of 20 µl of 10% lithium dodecyl sulfate and 2 µl of 2 M Tris base, cell lysates were sonicated until their viscosity disappeared. […]
In general terms: A western blot detects proteins with antibodies after separation by electrophoresis.

The nature of data set [3]: Pharmacokinetics of WN-compounds in mice (brain and serum concentration, HPLC). The following applies: for Cmax: C57BL/6N mouse, oral 50 mg/kg body weight. It is filed as in vivo, mouse (C57BL/6N). How it is done:
Wild type mice at 8 weeks (male, C57BL/6N) were used for the analysis of CPN-9, WN1303R, WN1312, WN1315 and WN1316 pharmacokinetics. CPN-9 was suspended in 0.5% carboxymethyl cellulose (CMC)-Na (carmellose sodium, Maruishi Pharmaceutical Co., Ltd.), while WN1303R, WN1312 and WN1316 were dissolved in Milli-Q purified water (MQ water) and WN1315 was dissolved in 0.25 N HCl. CPN-9 (100 mg/kg body weight) and the four WN-compounds (50 mg/kg body weight) were injected intragastrically (i.g.). After 15 min, 30 min, 1 h, 2 h, 4 h, 6 h, and 8 h, blood was collected from heart of each mouse anesthetized with 2% isoflurane by inhalation or 4% halothane in a mixture of N2O/O2 (70∶30). Mice were thereafter perfused transcardially with physiological saline containing 10% heparin under anesthesia, and the whole brain was removed. Each blood sample was centrifuged at 1,000×g for 10 min at 4°C, and the serum fraction was collected. The brain was frozen in liquid nitrogen, and was cryopreserved until use.
We mixed serum with deproteinization buffer (0.05 M H2SO4, 2.5 M K2CO3, and […]), and collected the organic layer after centrifugation at 1,500×g for 10 min. The organic layer was mixed with 0.05 M H2SO4, and then, after centrifugation at 1,500×g for 10 min, the water layer was collected. After the addition of methanol, each serum derived sample was subjected to HPLC.
Mouse whole brain was homogenized with acetonitrile and left at −80°C for 10 min. The supernatant was collected after centrifugation at 10,000×g for 10 min at 4°C and was dried under vacuum. The dried sample was re-dissolved in methanol and mixed with two volumes of 10 mM phosphate buffer (pH7.0), after which the supernatant was collected by centrifugation at 10,000×g for 10 min at 4°C and then left at −80°C for 10 min. To further remove debris, the supernatant was filtered (0.45 µm filter), centrifuged (at 10,000×g for 10 min at 4°C), filtered (0.22 µm filter) and finally centrifuged again. Each sample solution from brain was subjected to HPLC.
The concentrations of CPN-9 and WN1316 in the serum and brain samples were determined by HPLC on a CAPCELL PAK C18 column (SHISEIDO) with 50% acetonitrile (CPN-9), 40% acetonitrile (WN1316) or 45% acetonitrile (WN1303R, WN1312, and WN1315) in 10 mM phosphate buffer (pH 7.0).

Data set [4] relates to total GSH in differentiated SH-SY5Y cells. As to the kind of experiment: Measurement of intracellular glutathione (GSH/GSSG-Glo). In kind it is cell-based, human. The following applies: 1–20 µM, 8 h. How it is done: Differentiated SH-SY5Y cells were treated with various concentrations of WN1316 (1–20 µM) or vehicle control (DMSO). After 8 h incubation, the cellular oxidized (GSSG) and reduced glutathione (GSH) levels were measured using the GSH/GSSG-Glo™ Assay kit (Promega) according to the manufacturer’s instructions. GSH and GSSG levels were normalized to protein concentrations.

Each structure is given as a SMILES string. Counter-ions that a name gives are not always drawn. Like-named read-outs stand apart in the source and are kept apart here. A value given as a limit tells only on which side of the number the result lay.

For `Cc1cc(C)c(N(C)CC(=O)Nc2nc(-c3ccccn3)c[nH]2)c(C)c1` [WN1316, 2-[mesityl(methyl)amino]-N-[4-(pyridin-2-yl)-1H-imidazol-2-yl] acetamide trihydrochloride], the “pre-treatment time required for AOND activity” value in data set [1] (6 µM WN1316, then 60 µM menadione 4 h) was greater than 8 h. In addition, in data set [1] (8 h treatment, then 60 µM menadione 4 h), the “concentration that militates against cytoprotection” value is recorded as greater than 20 µM. Also, in data set [1] (compound 24 h, then 60 µM menadione 4 h, compared with mother compound CPN-9), the “cytoprotection against oxidative stress-induced cell death” value was “marked cytoprotection”. For the same compound, in data set [1] (menadione, α-naphthoquinone, 6-OHDA vs staurosporine, okadaic acid, 8 h pretreatment), the “selectivity of protection against various cytotoxins” value is “greatest protection against oxidative stress-induced damage”. Also, the “mRNA of Nrf2-regulated genes (Nrf2, ATF3, HO-1, GCLM, NQO1, p21, p62)” value in data set [2] is on record as “increased”. In addition, the “AUC0–8: Brain” value in data set [3] (C57BL/6N mice, intragastric, 50 mg/kg, n = 4, mean ± SD) turned out to be 38.9±5.7 µg⋅h/g. Besides, in data set [3] (WN1316 50 mg/kg vs CPN-9 100 mg/kg), the “brain AUC0–8 relative to the level observed with CPN-9” value is reported as “about 39 fold”. For the same compound, the peak concentration (Cmax) (in general, the highest concentration seen after dosing) in data set [3] (male, brain, read-out: Cmax in brain) is 42.1 µM; in data set [3] (male, serum, read-out: Cmax in blood), 9.78 µM. Also, in data set [3] (male, mouse, brain / serum, oral 50 mg/kg, C57BL/6N, read-out: brain AUC0–8 relative to serum levels), the Kp was roughly 4. For the same compound, the AUC(0-t) in data set [3] (male, mouse, serum, po, C57BL/6N mice, intragastric, 50 mg/kg, n = 4, mean ± SD, read-out: AUC0–8: Serum) turned out to be 13.6 ± 0.7 µg·h/mL. The “BBB permeability (in words)” value in data set [3] (mouse, in vivo) is reported as “prominent BBB permeability”. The “clearance in both brain and serum” value in data set [3] (oral 50 mg/kg, C57BL/6N) is listed as 8 h. For the same compound, the “total GSH level” value in data set [4] was “upregulation of total GSH level”.

(Values after paper PMC3909264, “A Novel Acylaminoimidazole Derivative, WN1316, Alleviates Disease Progression via Suppression of Glial Inflammation in ALS Mouse Model” (PLoS ONE, 2014).)
